We go through 55 compounds from US8178530B2, “Imidazolopyrazine compounds useful for the treatment of degenerative and inflammatory diseases” (Janssen Pharmaceutica NV, priority 2006, dated 2012).

In one test the test system is MMP1 expression by SFs. Put plainly: 'MMP assay': MMP1 expression by 'complex trigger' activated synovial fibroblasts (MMP1 ELISA). As to conditions: Homo sapiens, Fibroblast, RASFs, 48 hrs. Type of test: cell-based, human. A general note: In an ELISA, binding on a coated surface is turned into a signal by an enzyme label.
On to `CCN(CC)CCNC(=O)c1ccc(Nc2ncc(-c3cn[nH]c3)n3ccnc23)cc1` [Compound 32, N-(2-Diethylamino-ethyl)-4-[5-(1H-pyrazol-4-yl)-imidazo[1,2-a]pyrazin-8-ylamino]-benzamide], for which the EC50 (commonly the concentration at which the effect is half-maximal) is > 1000 nM.
In the case of `CN1CCN(c2ccc(Nc3ncc(-c4ccc(C(N)=O)o4)n4ccnc34)cc2)CC1` [Compound 139, 5-{8-[4-(4-Methyl-piperazin-1-yl)-phenylamino]-imidazo[1,2-a]pyrazin-5-yl}-furan-2-carboxylic acid amide], the concentration for a half-maximal effect (EC50) is > 1000 nM.
On to `Cc1[nH]ncc1-c1cnc(Nc2ccc(N3CCN(C)CC3)cc2)c2nccn12` [Compound 119, (4-(4-Methylpiperazin-1-yl)phenyl)-[5-(5-methyl-1H-pyrazol-4-yl)imidazo[1,2-a]pyrazin-8-yl]amine], for which the EC50 is > 1000 nM.
As to `CN1CCN(c2ccc(Nc3ncc(-c4ccc(C(N)=O)cn4)n4ccnc34)cc2)CC1` [Compound 128], the half-maximal effective concentration (EC50) was > 1000 nM.
Same read-out and setting: in the case of `O=C1NCc2cc(-c3cnc(Nc4ccc(N5CCOCC5)cc4)c4nccn34)sc21` [Compound 198, 2-[8-(4-Morpholin-4-yl-phenylamino)-imidazo[1,2-a]pyrazin-5-yl]-4,5-dihydro-thieno[2,3-c]pyrrol-6-one] it was 101 to 500 nM.
With `CNC(=O)c1ccc(-c2cnc(Nc3ccc(N4CCN(C)CC4)cc3)c3nccn23)cc1` [Compound 116], the EC50 is > 1000 nM.
Consider `CN(C)Cc1cn(-c2ccc(Nc3ncc(-c4ccc(C(N)=O)cc4)n4ccnc34)cc2)nn1` [Compound 166, 4-{8-[4-(4-Dimethylaminomethyl-[1,2,3]triazol-1-yl)-phenylamino]-imidazo[1,2-a]pyrazin-5-yl}-benzamide], for which the concentration giving a half-maximal response (EC50) was > 1000 nM.
As for `Cc1cc(C(N)=O)ccc1-c1cnc(Nc2ccc(N3CCN(C)CC3)cc2)c2nccn12` [Compound 120], the EC50 is > 1000 nM.
Turning to `O=C(NC1CCNC1)c1ccc(Nc2ncc(-c3cn[nH]c3)n3ccnc23)cc1` (stereo not shown) [Compound 55], the EC50 is > 1000 nM.
Same read-out and setting: in the case of `NC(=O)c1ccc(-c2cnc(Nc3ccc(N4CCCCC4)cc3)c3nccn23)cc1` [Compound 144] it was 101 to 500 nM; in that of `CN1CCC(Oc2ccc(Nc3ncc(-c4ccc(C(N)=O)c(F)c4)n4ccnc34)cc2)CC1` [Compound 149], > 1000 nM.
With `C[C@@H]1CN(c2ccc(Nc3ncc(-c4csc(C(N)=O)c4)n4ccnc34)cc2)[C@@H](C)CN1C` [Compound 186], the EC50 lay within 501 to 1000 nM.
Take `NC(=O)c1ccc(-c2cnc(Nc3ccc(OCCN4CCOCC4)cc3)c3nccn23)cc1F` [Compound 146]: the EC50 fell in the range of 501 to 1000 nM.
Consider `CN(C)C(CNC(=O)c1ccc(Nc2ncc(-c3cc[nH]c(=O)c3)n3ccnc23)cc1)c1cccnc1` (stereo not shown) [Compound 114], for which the EC50 is > 1000 nM.
`Cn1nnc(-c2ccc(Nc3ncc(-c4cn[nH]c4)n4ccnc34)cc2)n1` [Compound 169, [4-(2-Methyl-2H-tetrazol-5-yl)-phenyl]-[5-(1H-pyrazol-4-yl)-imidazo[1,2-a]pyrazin-8-yl]-amine]: the EC50 was 101 to 500 nM.
Consider `Cc1oc(-c2cnc(Nc3ccc(N4CCOCC4)cc3)c3nccn23)cc1C(N)=O` [Compound 188], for which the EC50 was 501 to 1000 nM.
For the compound `CN1CCN(c2ccc(Nc3ncc(-c4ccc(C(N)=O)s4)n4ccnc34)cc2)CC1` [Compound 127, (4-(4-Methylpiperazin-1-yl)phenyl)-[5-(2-carboxamido-5-thienyl)imidazo[1,2-a]pyrazin-8-yl]amine], the EC50 is 101 to 500 nM.
Same read-out and setting: the figure for `CN1CCN(c2ccc(Nc3ncc(-c4ccc(C(N)=O)cc4)n4ccnc34)cc2)CC1` [Compound 143] is 501 to 1000 nM.
Still for that read-out and setting: in the case of `NC(=O)c1ccc(-c2cnc(Nc3ccc(N4CCN(CCO)CC4)cc3)c3nccn23)cc1` [Compound 156] it was 101 to 500 nM; in that of `c1cn2c(-c3c[nH]cn3)cnc(Nc3ccc(N4CCOCC4)cc3)c2n1` [Compound 163], > 1000 nM; in that of `O=C(Nc1ccccc1)c1ccc(Nc2ncc(-c3cn[nH]c3)n3ccnc23)cc1` [Compound 41], > 1000 nM.
Regarding `CN1CCN(c2ccc(Nc3ncc(-c4csc(C(N)=O)c4)n4ccnc34)cc2)CC1` [Compound 118], the EC50 was > 1000 nM.
Consider `O=C(NCc1ccc(O)cc1)c1ccc(Nc2ncc(-c3cn[nH]c3)n3ccnc23)cc1` [Compound 90, N-(4-Hydroxybenzyl)-4-[5-(1H-pyrazol-4-yl)imidazo[1,2-a]pyrazin-8-ylamino]benzamide], for which the EC50 lay within 101 to 500 nM.
The same measure, in the same setting: the figure for `C[C@@H]1CN(C)[C@@H](C)CN1c1ccc(Nc2ncc(-c3ccc(C(N)=O)cc3)n3ccnc23)cc1` [Compound 137] is 101 to 500 nM.
In the case of `CCN(CC)CCNS(=O)(=O)c1ccc(Nc2ncc(-c3ccc(C(N)=O)cc3)n3ccnc23)cc1` [Compound 98], the EC50 was 501 to 1000 nM.
In the case of `CN1CCN(c2ccc(Nc3ncc(-c4ccc(C(N)=O)nc4)n4ccnc34)cc2)CC1` [Compound 129, 5-{8-[4-(4-Methyl-piperazin-1-yl)-phenylamino]-imidazo[1,2-a]pyrazin-5-yl}-pyridine-2-carboxylic acid amide], the EC50 was > 1000 nM.
As to `NS(=O)(=O)c1ccc(Nc2ncc(-c3cn[nH]c3)n3ccnc23)cc1` [Compound 36], the EC50 was > 1000 nM.
`O=C(c1ccc(Nc2ncc(-c3cn[nH]c3)n3ccnc23)cc1)N1CCOCC1` [Compound 45]: the EC50 was > 1000 nM.
As to `CN1CCN(c2ccc(Nc3ncc(-c4cc(F)c(C(N)=O)c(F)c4)n4ccnc34)cc2)CC1` [Compound 140], the EC50 is > 1000 nM.
Consider `CN1CCN(c2ccc(Nc3ncc(-c4cc(C(N)=O)cs4)n4ccnc34)cc2)CC1` [Compound 145, 5-{8-[4-(4-Methyl-piperazin-1-yl)-phenylamino]-imidazo[1,2-a]pyrazin-5-yl}-thiophene-3-carboxylic acid amide], for which the EC50 lay in the range of 501 to 1000 nM.
Take `O=C(NCCN1CCOCC1)c1ccc(Nc2ncc(-c3cn[nH]c3)n3ccnc23)cc1` [Compound 53]: the EC50 is > 1000 nM.
On to `CCNCCNC(=O)c1ccc(Nc2ncc(-c3cn[nH]c3)n3ccnc23)cc1` [Compound 56], for which the EC50 was > 1000 nM.
Same read-out and setting: the figure for `NC(=O)c1ccc(Nc2ncc(-c3cn[nH]c3)n3ccnc23)cc1` [Compound 11] is > 1000 nM; for `CC(C)N1CCN(c2ccc(Nc3ncc(-c4ccc5c(c4)CNC5=O)n4ccnc34)cn2)CC1` [Compound 210, 5-{8-[6-(4-Isopropyl-piperazin-1-yl)-pyridin-3-ylamino]-imidazo[1,2-a]pyrazin-5-yl}-2,3-dihydro-isoindol-1-one] it is 501 to 1000 nM; for `C[C@@H]1CN(c2ccc(Nc3ncc(-c4ccc(C(N)=O)cc4)n4ccnc34)cc2)C[C@H](C)N1C` [Compound 155] it is 101 to 500 nM.
Still for that read-out and setting: in the case of `CN1CCC(NC(=O)c2ccc(Nc3ncc(-c4cn[nH]c4)n4ccnc34)cc2)C1` (stereo not shown) [Compound 64] it was > 1000 nM.
Same read-out and setting: the figure for `O=C1NCc2cc(-c3cnc(Nc4cccnc4)c4nccn34)ccc21` [Compound 197] is 501 to 1000 nM; for `CN1CCC(COc2ccc(Nc3ncc(-c4ccc(C(N)=O)c(F)c4)n4ccnc34)cc2)CC1` [Compound 159, 2-Fluoro-4-{8-[4-(1-methyl-piperidin-4-ylmethoxy)-phenylamino]-imidazo[1,2-a]pyrazin-5-yl}-benzamide] it is 101 to 500 nM; for `CN1CCN(c2ccc(Nc3ncc(-c4cscn4)n4ccnc34)cc2)CC1` [Compound 138] it is > 1000 nM.
On to `CCN(CC)CCNC(=O)c1ccc(Nc2ncc(-c3cn[nH]c3)n3ccnc23)c(F)c1` [Compound 83], for which the EC50 is > 1000 nM.
As for `Cn1cnnc1-c1ccc(Nc2ncc(-c3ccc(C(N)=O)cc3)n3ccnc23)cc1` [Compound 141], the concentration giving a half-maximal response (EC50) is 501 to 1000 nM.
As for `CN1CCN(c2ccc(Nc3ncc(-c4ccc(C(N)=O)c(Cl)c4)n4ccnc34)cc2)CC1` [Compound 124], the EC50 is > 1000 nM.
Same read-out and setting: in the case of `NC(=O)c1ccc(-c2cnc(Nc3ccc(-n4ccnc4)cc3)c3nccn23)cc1` [Compound 167] it was > 1000 nM; in that of `NC(=O)c1ccc(-c2cnc(Nc3ccc(-c4cccnc4)cc3)c3nccn23)cc1` [Compound 153], 101 to 500 nM.
As to `c1cn(-c2ccc(Nc3ncc(-c4cn[nH]c4)n4ccnc34)cc2)cn1` [Compound 168, (4-Imidazol-1-yl-phenyl)-[5-(1H-pyrazol-4-yl)-imidazo[1,2-a]pyrazin-8-yl]-amine], the half-maximal effective concentration (EC50) is > 1000 nM.
On to `CN(C)c1ccc(CNC(=O)c2ccc(Nc3ncc(-c4cn[nH]c4)n4ccnc34)cc2)cc1` [Compound 89], for which the concentration for a half-maximal effect (EC50) fell in the range of 501 to 1000 nM.
`O=C(NCc1cccnc1)c1ccc(Nc2ncc(-c3cn[nH]c3)n3ccnc23)cc1` [Compound 35]: the EC50 was > 1000 nM.
As for `CS(=O)(=O)c1ccc(Nc2ncc(-c3cn[nH]c3)n3ccnc23)cc1` [Compound 71], the EC50 is > 1000 nM.
On to `CCN(CC)CCNC(=O)c1ccc(Nc2ncc(-c3cn[nH]c3)n3ccnc23)cc1F` [Compound 82], for which the EC50 is > 1000 nM.
For the compound `CN1CCN(c2ccc(Nc3ncc(-c4ccnc(F)c4)n4ccnc34)cc2)CC1` [Compound 125, [5-(2-Fluoro-pyridin-4-yl)-imidazo[1,2-a]pyrazin-8-yl]-[4-(4-methyl-piperazin-1-yl)-phenyl]-amine], the EC50 is > 1000 nM.
The same measure, in the same setting: the figure for `CC(C)N1CCN(c2ccc(Nc3ncc(-c4ccc(C(N)=O)cc4)n4ccnc34)cc2)CC1` [Compound 142] is 501 to 1000 nM; for `NC(=O)c1ncc(-c2cnc(Nc3ccc(N4CCOCC4)cc3)c3nccn23)s1` [Compound 173, 5-[8-(4-Morpholin-4-yl-phenylamino)-imidazo[1,2-a]pyrazin-5-yl]-thiazole-2-carboxylic acid amide] it is > 1000 nM.
In the case of `CC(C)N1CCN(c2ccc(Nc3ncc(-c4cc(F)c(C(N)=O)c(F)c4)n4ccnc34)cc2)CC1` [Compound 193], the EC50 lay in the range of 501 to 1000 nM.
Same read-out and setting: the figure for `CN(C)Cc1cc(Nc2ncc(-c3cn[nH]c3)n3ccnc23)ccc1N1CCOCC1` [Compound 218, (3-Dimethylaminomethyl-4-morpholin-4-yl-phenyl)-[5-(1H-pyrazol-4-yl)-imidazo[1,2-a]pyrazin-8-yl]-amine] is > 1000 nM.

Staying with this test, now noted: RASFs, 48 hrs.
Regarding “4-(8-{4-[1-(2,2,2-Trifluoroethyl)piperidin-4-yl]phenylamino}imidazo[1,2-a]pyrazin-5-yl)thiophene-2-carboxylic acid amide [Compound 192]”, the EC50 was in the range of 501 to 1000 nM.
